The test system of assay [1] is TIMP-1 mRNA. As to the kind of experiment: Osteoarthritic rabbit model (ACLT), intraarticular injection, RT-PCR of TIMP-1. The class given is in vivo. To be noted: rabbit ACLT knee, intraarticular once a week for 5 weeks. The protocol:
(§1) Mature New Zealand White rabbits underwent bilateral anterior cruciate ligament transection (ACLT). ACLT was performed using a medial arthrotomy method. Postoperatively the animals were permitted cage (60 cm×60 cm×40 cm) activity without immobilization. The right knees received via intraartiticular injection DHEA, DHEA-pyruvate or DHEA+HA, 4 weeks after ACLT and once a week for 5 weeks. The left knees received 0.3 ml of intraarticular injection with control solution (carrier solution). After 9 weeks from ACLT, the animas were sacrificed.
(§2) Synovium (entire tissue) around the infrapatellar fat pads and cartilage tissue from the femoral condyle and the tibial plateau were harvested. The subsequent experimental procedure was the same as described in Test Example IV.

The subject of assay [2] is type II collagen mRNA. As to the kind of experiment: RT-PCR of type II collagen mRNA in chondrocytes. The class given is cell-based, human. The note with it: for type II collagen gene up-regulation, enhancement: 72 hours. Here is the method:
(§3) Chondrocytes were isolated from the knee joint of patient undergoing a knee replacement due to osteoarthritis. Cartilage was digested with 0.2% protease Type XIV (Sigma) for 1 hour, followed by 3-hour incubation with 0.2% collagenase Type IA (Sigma) at 37° C. Following the incubation, the undigested cartilage fragments were removed using a 70 μm Nylon sieve. Chondrocytes were washed with DPBS and maintained in monolayer culture for 7 days in Dulbecco's modified Eagle's medium (DMEM; Life Technologies Inc.) which contained 10% fetal bovine serum (FBS; Life Technologies), 100 units/ml penicillin-streptomycin (Life Technologies) and 25 μg/ml L-ascorbic acid (Sigma). All experiments were performed with primary or first passage cells. The preparation of chondrocytes in alginate beads was carried out with 4×10^6 cells per 1 ml of alginate. Alginate cultures were maintained for 7 days at 37° C., 5% CO2 and 95% humidity and incubated with various concentrations of DHEA (0, 10, 50 or 100 μM) for a varing period of time. DHEA was purchased from Sigma and used after dissolving either in ethanol or dimethyl sulfoxide (DMSO). After a desired incubation period, cells were harvested by solubilizing the alginate beads in citrate buffer (55 mM sodium citrate, 0.15 M NaCl, pH 7.0) for 10 min at 37° C. and by centrifugation (300 g, 5 min).
Total RNA from chondrocytes was extracted using RNeasy Mini Kit (QIAGEN). Reverse transcription from 1 μg of total RNA was conducted using First Strand cDNA Synthesis Kit (MBI Fermentas) according to manufacturer's recommendation with random hexamers. […] All reactions were determined to be in the linear range of amplification with the cycle number ranging from 14 to 30. The PCR products were analyzed by separation on a 2% agarose gel followed by ethidium bromide staining. Following electrophoresis, photographs were taken and analyzed using a densitometric program (TINA; Raytest Isotopenmeβgerate, Germany). […] After normalizing with respect to GAPDH, percentage increase or decrease was determined. […]

In assay [3] the test system is MMP-3 expression. As to the kind of experiment: Osteoarthritic rabbit model (ACLT), intraarticular injection, RT-PCR of MMP-3. The class given is in vivo. To be noted: rabbit ACLT knee, intraarticular once a week for 5 weeks. Here is the method: as §1, §2
Assay [4] concerns MMP-1 mRNA. As to the kind of experiment: RT-PCR of MMP-1 mRNA in chondrocytes. The class given is cell-based, human. To be noted: 100 μM. Here is the method:
as §3
(§4) Total RNA from chondrocytes was extracted using RNeasy Mini Kit (QIAGEN). Reverse transcription from 1 μg of total RNA was conducted using First Strand cDNA Synthesis Kit (MBI Fermentas) according to manufacturer's recommendation with random hexamers. The resulting cDNA was then amplified by polymerase chain reaction using AccuPower PCR Premix (Bioneer, Korea) in a final volume of 20 μl using three thermocycler temperatures (30 sec at […], 30 sec at 60° C., and 30 sec at […]). All reactions were determined to be in the linear range of amplification with the cycle number ranging from 14 to 30. The PCR products were analyzed by separation on a 2% agarose gel followed by ethidium bromide staining. Following electrophoresis, photographs were taken and analyzed using a densitometric program (TINA; Raytest Isotopenmeβgerate, Germany). Integrated density values for the genes in question were then normalized to the glyceraldehyde-3-phosphate dehydrogenase (GAPDH) values for a semiquantitative assessment. After normalizing with respect to GAPDH, percentage increase or decrease was determined. Each experiment was repeated at least three times. […]

Assay [5] concerns human chondrocyte. As to the kind of experiment: GAG assay (35SO4-labeled proteoglycan synthesis) in chondrocyte alginate culture. The class given is cell-based. The note with it: DHEA present in chondrocyte cultures, same time period. Here is the method: Chondrocytes were isolated from the knee joint of patient undergoing a knee replacement due to osteoarthritis. Cartilage was digested with 0.2% protease Type XIV (Sigma) for 1 hour, followed by 3-hour incubation with 0.2% collagenase Type IA (Sigma) at 37° C. Following the incubation, the undigested cartilage fragments were removed using a 70 μm Nylon sieve. Chondrocytes were washed with DPBS and maintained in monolayer culture for 7 days in Dulbecco's modified Eagle's medium (DMEM; Life Technologies Inc.) which contained 10% fetal bovine serum (FBS; Life Technologies), 100 units/ml penicillin-streptomycin (Life Technologies) and 25 μg/ml L-ascorbic acid (Sigma). All experiments were performed with primary or first passage cells. The preparation of chondrocytes in alginate beads was carried out with 4×10^6 cells per 1 ml of alginate. […]
For cell proliferation, [^3H]thymidine assay was performed on a 96-well plate (Nunc) with one alginate bead per well. […] After collecting the cells using a cell harvester (Wallac), [^3H]thymidine uptake was quantitated by measuring β emission on a β-counter (Wallac). […] The ^35SO4-labeled proteoglycan content was measured by a liquid scintillation counter (Wallac). The total cellular DNA was determined by Indole assay.

The test system of assay [6] is type II collagen mRNA. The assay can be described thus: Osteoarthritic rabbit model (ACLT), intraarticular injection, RT-PCR of type II collagen. The class given is in vivo. To be noted: rabbit ACLT knee, intraarticular once a week for 5 weeks. Here is the method: as §1, §2
The test system of assay [7] is MMP-1. As to the kind of experiment: Western blot of MMP-1 in chondrocyte lysates. The class given is cell-based, human. To be noted: 0, 10 or 100 μ DHEA, three days. Here is the method: as §3, with “After a desired incubation period, cells were harvested by solubilizing the alginate beads in citrate buffer (55 mM sodium citrate, 0.15 M NaCl, pH 7.0) for 10 min at 37° C. and by centrifugation (300 g, 5 min).” left out
To investigate the effect of DHEA on the protein concentration, Western blot analysis was performed. […] Protein concentration of the supernatant was determined by Bio-Rad protein assay (Bio-Rad, USA) using bovine serum albumin (BSA) as a standard. […]
On the technique in general: A western blot detects proteins with antibodies after separation by electrophoresis.

For assay [8], the system named is TIMP-1 mRNA. The assay can be described thus: RT-PCR of TIMP-1 mRNA in chondrocytes. The class given is cell-based, human. Here is the method:
as §3, §4

Take `C[C@]12CC[C@H](O)CC1=CC[C@@H]1[C@@H]2CC[C@]2(C)C(=O)CC[C@@H]12` [DHEA, dehyroepiandrosterone]: the “expression of TIMP-1” value in assay [1] was “increased”. Moreover, the “type II collagen gene up-regulation, enhancement” value in assay [2] (50 μM) came to 132%; in assay [2] (100 μM), 146%. In assay [2] (Homo sapiens, Chondrocyte, 100 μM, after 48 hr, read-out: type II collagen mRNA level, maximal stimulation), the Emax at 100 µM is 276%. Further, in assay [3], the “expression of MMP-3” value is given as “did not change”. For the same molecule, the “MMP-1 level, inhibition” value in assay [4] (72 hours) is reported as 48%. In addition, the “MMP-1 mRNA level, reduced by” value turned out to be 43% in assay [4] (after 24 hr) and 35% in assay [4] (after 48 hr). Also, the “MMP-1 mRNA expression” value in assay [4] (after 72 hr) is on record as “markly inhibited”. For the same molecule, in assay [5], the “rate of proteoglycan synthesis” value is listed as “remained unchanged”. For the same molecule, the “expression of type II collagen” value in assay [6] was “increased”. For the same molecule, the “MMP-1 protein level (Western blot)” value in assay [7] is “reduced with increasing DHEA concentration”. For the same molecule, the “TIMP-1 mRNA expression, maximum rate of enhancement” value in assay [8] (50 μM, 72 hours) is 120%. Moreover, the “TIMP-1 mRNA expression, up-regulation” value in assay [8] (100 μM, after 72 hr) was determined as 129%. Further, the “TIMP-1 mRNA expression” value in assay [8] (100 μM, up to 48 hr) is “unaffected”. Also, in assay [8] (DHEA concentration above 100 μM), the “TIMP-1 mRNA enhancement effect” value is given as “diminished”.
